Data as given in US11471472B2, “Use of verbascoside in preparation of drug for preventing or treating glomerular podocyte injured renal disease” (SICHUAN MEDCO PHARMACEUTICAL STOCK CO., LTD., priority 2017, dated 2022).

Key:
mouse podocyte line MPC5 [1] = test: Cell migration (scratch) experiment in puromycin-treated podocytes; type: cell-based; details: 24 hours after scratch
Experimental: (§1) A mouse podocyte line MPC5 was offered by professor Peter Mundel from Mount Sinai Medical School, New York, USA. After recovery, podocytes were placed in a 33° C., 5% CO2 cell incubator to be cultured for proliferation thereof. When a fusion degree thereof reached about 80%, the podocytes were transferred into a 37° C. incubator to be differentiated for 10-14 days such that the podocytes were differentiated to be mature. After the podocytes were differentiated to be mature, the podocytes were inoculated in a 6-well plate, and after the podocytes adhered to the wall, puromycin and verbascoside were added into the plate to stimulate the podocytes for 24 hours, and then proteins or RNAs were collected for later detection.
The differentiated podocytes were inoculated on a 6-well plate coated with rat type I collagen, and when the fusion degree thereof reached 60%, a line was scratched on a baseboard using a 200 μL sterile high-pressure gun tip, then the plate was flushed clean using PBS and a clean culture medium was used in replacement, which time was served as the 0th hour, and a photo was taken by an inverted microscope, then a corresponding drug was added for intervention, then after 24 hours, a photo was taken again, and finally analysis was made using ImageJ software. The final result was expressed by percentage of coverage.

mouse podocyte line MPC5 [2] = test: Phalloidin staining of podocyte cytoskeletal microfilamentous proteins; type: cell-based; details: puromycin-treated podocytes
Experimental: as §1
The kidney tissue was sliced. First, slices were subjected to xylene and gradient alcohol deparaffinization, followed by antigen retrieval, and then punched with 0.3% Triton-PBS. […] The mixture was rinsed with deionized water, mounted with 50% buffered glycerol, edge sealed with nail polish, observed under a fluorescence microscope, and photographed. […]

mouse podocyte line MPC5 [3] = test: Detection of podocyte activity with MTS in puromycin-induced podocyte damage; type: cell-based; details: 24 h
Experimental: as §1
After subculturing and counting the podocytes, the podocytes were uniformly inoculated into a 96-well plate at a density of 1.0×10^5/mL, after the cells adhered to the wall, puromycin and verbascoside were respectively added to treat the podocytes, then after 24 h, the culture medium was discarded, a culture medium containing MTS (Promega G1112) was added with the MTS content of 10 μl MTS per 100 μl of the culture medium, the 96-well plate added with the MTS was placed in a light-tight environment at 37° C. for 4 h and then taken out, and an OD value was measured at 490 nm wavelength using the ELIASA.

nephrin [4] = test: Nephrin gene and protein expression in glomeruli of puromycin-induced nephropathic rats (western, real-time quantitative PCR); type: in vivo, Sprague-Dawley rats; details: 20th day, 10 mg/kg intragastrically every day
Experimental: (§2) The animal experiment was approved by Animal Ethics Committee of Peking University First Hospital, with Resolution No.: J201644. 51 male Sprague-Dawley rats (6 weeks) of the same batch were purchased from Beijing Charles River Company, raised at the animal center of Peking University First Hospital (clean grade), and randomly divided into 3 groups after 3 days of acclimation:
(§3) In the above, groups 2 and 3 were intraperitoneally subjected to single injection of puromycin (Sigma P7130) by 15 mg/100 g at day 0 of the experiment. The normal control group was intraperitoneally injected with the same dosage of physiological saline. Group 3 was intragastrically treated with 10 mg/kg verbascoside every day, and groups 1 and 2 were intragastrically treated with the same dosage of injection water every day. In the experiment process, 24-hour urine of the rats was collected respectively before the administration (Day 0), and at the 5th day, the 10th day, the 15th day, and the 20th day (Day 5, Day 10, Day 15, and Day 20) after the administration, for quantitative measurement of urine protein (Hitachi 7170A full-automatic biochemical analyzer). […]

podocyte foot process = test: Podocyte foot process under electron microscope in puromycin-induced nephropathic rat models; type: in vivo, Sprague-Dawley rats; details: 20th day; 10 mg/kg intragastrically every day
Experimental: as §2, §3

nephrin [5] = test: Nephrin protein expression in puromycin-induced podocyte damage (western blot); type: cell-based, mouse; details: 24 hours
Experimental: as §1, with “detection. […]” for “detection.”

[6] = tested on: rats suffering from puromycin-caused nephropathy; test: 24-hour urine protein in rats suffering from puromycin-caused nephropathy; type: in vivo, Sprague-Dawley rats; details: 10 mg/kg verbascoside intragastrically every day
Description: as §2
1. normal control group (CON)
2. puromycin disease group (PAN)
3. puromycin+verbascoside-treated group (PAN+ACT)
In the above, groups 2 and 3 were intraperitoneally subjected to single injection of puromycin (Sigma P7130) by 15 mg/100 g at day 0 of the experiment. The normal control group was intraperitoneally injected with the same dosage of physiological saline. Group 3 was intragastrically treated with 10 mg/kg verbascoside every day, and groups 1 and 2 were intragastrically treated with the same dosage of injection water every day. In the experiment process, 24-hour urine of the rats was collected respectively before the administration (Day 0), and at the 5th day, the 10th day, the 15th day, and the 20th day (Day 5, Day 10, Day 15, and Day 20) after the administration, for quantitative measurement of urine protein (Hitachi 7170A full-automatic biochemical analyzer). The rats were sacrificed at the 20th day (Day 20) after the injection of puromycin, and kidney specimens were collected, which were subsequently used for extracting protein, extracting RNA, taking paraffin-embedded and frozen specimens, and separating glomeruli.
In order to determine the therapeutic effect of verbascoside on the rats suffering from puromycin-caused nephropathy, the rats were divided into 3 groups, normal control group (CON), disease group (PAN), and verbascoside group (PAN+ACT). 24-hour urine of the rats in each group were sampled every 5 days. The effect of verbascoside for treating the nephropathic proteinuria level was reflected by collecting and detecting blood and urine samples of the rats in each group.

synaptopodin = test: Synaptopodin immunofluorescence of kidney tissue in puromycin-induced nephropathic rats; type: in vivo, Sprague-Dawley rats; details: 20th day, 10 mg/kg intragastrically every day
Experimental: as §2, §3
The kidney tissue was sliced. […] The mixture was rinsed with deionized water, mounted with 50% buffered glycerol, edge sealed with nail polish, observed under a fluorescence microscope, and photographed. […]

## Verbascoside
Mouse podocyte line MPC5 [1]
  podocyte migration capability (percentage of coverage): restored
Mouse podocyte line MPC5 [2]
  arrangement of the cytoskeletons (phalloidin): restored
Mouse podocyte line MPC5 [3]
  podocyte viability (MTS, OD 490 nm): recovered
Nephrin [4]
  nephrin gene expression level (real-time quantitative PCR): increased
  nephrin protein expression level (western): increased
Podocyte foot process
  podocyte foot process fusion (electron microscope): recovered apparently
Nephrin [5]
  nephrin expression (protein): improved
[6]; 5th day, puromycin 15 mg/100 g i.p.
  24-hour urine protein vs puromycin group: not significantly different
[6]; 10th day, puromycin 15 mg/100 g i.p.
  24-hour urine protein vs disease group: decreased significantly
[6]; 15th day
  24-hour proteinuria abnormality: remarkably relieved
[6]; 20th day
  24-hour proteinuria abnormality: remarkably relieved
synaptopodin
  synaptopodin fluorescence intensity: recovered
